The text below walks through data of PubChem BioAssay (NCI).

SMILES strings stand for the structures.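 These data come from cells grown in 96-well plates and exposed to compound for 48 hours at five concentrations. Abbreviation: GI50, concentration required for 50% inhibition of growth. At the TGI there is no net growth.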

Among the test systems are NCI-H226 lung; NCI-H522 lung; SW-620 colon; NCI-H23 lung; SF-539 CNS; OVCAR-3 ovarian; NCI-H460 lung; 786-0 renal; HOP-92 NSCLC.
What all share (experiment): inhibition of tumour cell growth, NCI panel, 48 h

For the molecule `O=P(O)(O)OCC1OC(n2cnc3c(NCc4ccccc4)ncnc32)C(O)C1O` (centres undefined), the GI50 was 2.26 µM in the experiment on NCI-H226 lung; 2.16 µM in the experiment with NCI-H522 lung; 1.33 µM in the experiment with SW-620 colon; 1.97 µM in the experiment with NCI-H23 lung; 1.55 µM with SF-539 CNS; 0.691 µM in the experiment on OVCAR-3 ovarian. Moreover, the GI50 in the experiment with NCI-H460 lung was 10.6 µM; with 786-0 renal, 2.83 µM; in the experiment with HOP-92 NSCLC it was 2.14 µM. Also, the TGI with NCI-H226 lung was 6.48 µM; in the experiment with NCI-H522 lung, 11.2 µM; in the experiment with SW-620 colon, greater than 73.9 µM; with NCI-H23 lung, 31.4 µM; in the experiment on SF-539 CNS, 4.73 µM; in the experiment on OVCAR-3 ovarian, 2.16 µM. For the same molecule, the TGI in the experiment on NCI-H460 lung was greater than 59.3 µM; with 786-0 renal, greater than 67.6 µM; with HOP-92 NSCLC, greater than 22.5 µM.
As for `C[CH2][Sn]([CH2]C)([O]C(=O)c1ccc(F)cc1)[O]C(=O)c1ccc(F)cc1`, the GI50 is 15.5 µM in the experiment with NCI-H226 lung; 1.71 µM in the experiment with NCI-H522 lung; 22 µM in the experiment on SW-620 colon; 17.3 µM in the experiment with NCI-H23 lung; 16.4 µM with SF-539 CNS; greater than 48 µM in the experiment with OVCAR-3 ovarian. For the same molecule, the GI50 with NCI-H460 lung was greater than 100 µM; with 786-0 renal, 18.8 µM; in the experiment on HOP-92 NSCLC it was 12.7 µM. Besides, the TGI is 29.4 µM in the experiment on NCI-H226 lung; 4.48 µM in the experiment with NCI-H522 lung; 46.7 µM in the experiment with SW-620 colon; 32.8 µM in the experiment with NCI-H23 lung; 30.1 µM in the experiment with SF-539 CNS; greater than 82.2 µM with OVCAR-3 ovarian. The TGI with NCI-H460 lung is greater than 100 µM; in the experiment on 786-0 renal it was 35.1 µM; in the experiment on HOP-92 NSCLC, 26 µM.
Take `CC1=CCCC2C(C=O)(C1)CC(C)C2(CO)CC/C(=C/CO)CO` (centres undefined): the TGI in the experiment with NCI-H226 lung, in the experiment with NCI-H522 lung, with SW-620 colon, in the experiment on NCI-H23 lung, in the experiment with OVCAR-3 ovarian and in the experiment on NCI-H460 lung was greater than 100 µM in each case. In addition, the TGI in the experiment on 786-0 renal is greater than 100 µM; in the experiment on HOP-92 NSCLC, 87.6 µM.
On to `CC1c2[nH]c3ccccc3c2CCN1O` (centres undefined), for which the TGI in the experiment on NCI-H226 lung, in the experiment with NCI-H522 lung, in the experiment on SW-620 colon, in the experiment with NCI-H23 lung, with SF-539 CNS and in the experiment with OVCAR-3 ovarian was greater than 100 µM throughout. The TGI in the experiment on 786-0 renal and in the experiment on HOP-92 NSCLC was greater than 100 µM throughout.
As to `C=C1C(OC(C)=O)CC(OC(C)=O)C2(C)C(OC(C)=O)C(OC(C)=O)C3=C(C)C(OC(=O)/C=C/c4ccccc4)CC(C(OC(C)=O)C12)C3(C)C` (centres undefined), the TGI in the experiment on NCI-H226 lung, with NCI-H522 lung, with SW-620 colon, in the experiment with SF-539 CNS, in the experiment with NCI-H460 lung and in the experiment on 786-0 renal was greater than 100 µM each time. In the experiment on HOP-92 NSCLC, this molecule showed a TGI of 65.7 µM.
As to `COc1cc(/C=C2\CCCC3=C2N=C2SC(C)=NN2C3c2cc(OC)c(OC)c(OC)c2)cc(OC)c1OC` (centres undefined), the GI50 with SW-620 colon was 0.41 µM; in the experiment on OVCAR-3 ovarian it was 0.58 µM; in the experiment on 786-0 renal, greater than 100 µM; in the experiment with HOP-92 NSCLC, greater than 100 µM. In addition, the TGI in the experiment on SW-620 colon, in the experiment on OVCAR-3 ovarian, with 786-0 renal and with HOP-92 NSCLC was greater than 100 µM each time.
As to `c1ccc(OC2=NC3=S(S2)SC(Oc2ccccc2)=N3)cc1`, the TGI in the experiment with NCI-H226 lung worked out at 90.4 µM; in the experiment on NCI-H522 lung it was 36.1 µM; in the experiment on SW-620 colon, 35.2 µM; in the experiment with NCI-H23 lung it was 49 µM; in the experiment on SF-539 CNS, 54.6 µM; with OVCAR-3 ovarian, 28.6 µM. Besides, the TGI in the experiment on NCI-H460 lung is greater than 100 µM; with 786-0 renal, 30.6 µM.
In the case of `COC(=O)N/N=C(\C)CC(=O)Nc1ccc(Cl)cc1`, the TGI in the experiment with NCI-H226 lung, in the experiment on NCI-H522 lung, in the experiment on SW-620 colon, in the experiment on NCI-H23 lung, in the experiment on SF-539 CNS and with OVCAR-3 ovarian was greater than 100 µM each time. For the same molecule, the TGI in the experiment with NCI-H460 lung, in the experiment with 786-0 renal and in the experiment with HOP-92 NSCLC was greater than 100 µM throughout.
Take `O=C1NC2C(O)CCCCC2C12CCCCC2` (centres undefined): the TGI in the experiment on NCI-H522 lung, in the experiment on SW-620 colon, in the experiment on NCI-H23 lung, in the experiment on SF-539 CNS, with OVCAR-3 ovarian and in the experiment on NCI-H460 lung was greater than 100 µM each time. The TGI in the experiment on 786-0 renal and with HOP-92 NSCLC was greater than 100 µM throughout.
For the molecule `CC(=O)NN1C(=O)C(Cc2ccccc2)c2ccccc21` (centres undefined), the TGI with NCI-H226 lung, with SW-620 colon, in the experiment with NCI-H23 lung, in the experiment on SF-539 CNS, with OVCAR-3 ovarian and in the experiment on NCI-H460 lung was greater than 100 µM throughout. Besides, the TGI in the experiment on 786-0 renal and in the experiment on HOP-92 NSCLC was greater than 100 µM throughout.
Take `Nc1c2ccccc2nc2c(C(=O)Nc3ccc(S(N)(=O)=O)cc3)cccc12`: the TGI in the experiment with NCI-H226 lung, in the experiment with NCI-H522 lung, in the experiment with SW-620 colon, in the experiment with NCI-H23 lung, with SF-539 CNS and with OVCAR-3 ovarian was greater than 100 µM in each case. The TGI in the experiment with NCI-H460 lung and with 786-0 renal was greater than 100 µM each time.
Turning to `CCC[CH2][Sn]1([CH2]CCC)[S]CC[N]1S(=O)(=O)c1ccc(C)cc1`, the GI50 in the experiment with NCI-H226 lung is 2.03 µM; with NCI-H522 lung, 0.217 µM; in the experiment on NCI-H23 lung, 0.638 µM; in the experiment on SF-539 CNS, 1.36 µM; in the experiment with OVCAR-3 ovarian, 1.59 µM; in the experiment with NCI-H460 lung, 2.5 µM. Moreover, the GI50 in the experiment on 786-0 renal was 1.26 µM; in the experiment with HOP-92 NSCLC, 1.19 µM. Further, the TGI with NCI-H226 lung is 3.45 µM; in the experiment with NCI-H522 lung, 0.508 µM; in the experiment on NCI-H23 lung, 1.94 µM; in the experiment on SF-539 CNS, 2.68 µM; in the experiment on OVCAR-3 ovarian, 2.93 µM; in the experiment on NCI-H460 lung it was 5.44 µM. Further, the TGI came to 2.53 µM with 786-0 renal and 2.46 µM with HOP-92 NSCLC.
